≈ marks a conversion by molar mass, not a printed value. Marks after values point to notes of the source that are not given here. Starred links: 1 amine or outer side, 2 acyl side, 3 side chain; linkers in the order of their positions; H or OH if unused. Positions of bridges follow the written chain, without caps; N, C: chain ends. Non-standard residues stand in square brackets, D forms with d. Residues, ends and D or L forms follow the SMILES beside them. *: point of attachment. pTerphenylCO(4''-OnC5H11) = CCCCCOc1ccc(-c2ccc(-c3ccc(C(=O)*)cc3)cc2)cc1; Orn(4R-OH,5R-OH) = O=C([C@H](C[C@@H](O)[C@@H](O)N[*:3])N[*:1])[*:2]; hTyr(3S-OH,4S-OH) = N[C@H](C(=O)O)[C@H](O)[C@@H](O)c1ccc(O)cc1; Pro(3S-OH,4S-Me) = C[C@H]1CN[C@H](C(=O)O)[C@H]1O; Hyp = O=C(O)[C@@H]1C[C@@H](O)CN1
Key:
[1] = test system: C. albicans R303; assay: Mouse candidiasis infection model, C. albicans density in kidneys; type: in vivo, female CD-1 mice; settings: for Difference from 24-hr control / Mean log10 CFU/kidneys (±SD) / Mean log10 CFU/kidneys (±SEM): kidneys at 24 hr; for Reduction of yeast density in kidneys: 5 mg/kg dose, versus 24-hr infected control
Procedure: The objective of these studies was to evaluate the efficacy of test compounds in the mouse candidiasis infection model.
The strain, C. albicans R303 was transferred from frozen storage onto Sabauroud dextrose agar (SDA) plates and grown for ˜24 hr at 35° C. The inoculum was prepared by transferring colonies from the plate to phosphate buffered saline (PBS) and the concentration adjusted to 10^6 CFU/mL with the aid of a spectrophotometer. The stock was diluted 1:9 to prepare the inoculum. Prior to each run the concentration was verified using the dilution plate count method.
The female CD-1 mice used in this study were obtained from Charles River Laboratories, Portage, MI. The animals were approximately seven-weeks-old at the start of the study and weighed about 16-26 g.
In one approach, mice were made neutropenic with IP injections of cyclophosphamide (150 mg/kg in 10 mL/kg) at 4 and 1 day before inoculation. Each animal was inoculated with the appropriate concentration by injecting 0.1 mL of inoculum into a tail vein. The test compounds were administered IP at 2 hr after infection.
The kidneys were collected from four mice in control group 1 (untreated) at 2 hr after infection, and from the remaining mice in the study at 24 hr after infection. Kidneys were removed aseptically from each mouse and were combined in a sterile tube. An aliquot (2 mL) of sterile PBS was added to each tube and the contents homogenized with a tissue homogenizer (Polytron 3100). Serial dilutions of the tissue homogenates were conducted and 0.1 mL aliquots were spread on SDA plates and the plates incubated at 35° C. overnight. The CFU/kidneys were determined from colony counts. Data were analyzed using one-way ANOVA with the Tukey-Kramer Multiple Comparisons Test (GraphPad InStat version 3.06, GraphPad Software, San Diego, Calif.).
Treatments were administered at 2 hr after infection with 2.1×10^5 CFU/mL of the organism. Data are the means of four mice.
Treatments were administered at 2 hr after infection with 6.4×10^5 CFU/mL of the organism. Data are the means of four mice.
Treatments were administered at 2 hr after infection with 3.8×10^5 CFU/mL of the organism. Data are the means of four mice.
Treatments were administered at 2 hr after infection with 3.8×10^5 CFU/rnL of the organism. Data are the means of four mice.

[2] = test system: C. albicans 104 ATCC 90028; assay: MIC by broth microdilution against C. albicans; type: cell-based
Procedure: (§1) MIC values (μg/mL) of echinocandin class compounds of the invention against various Candida and Aspergillus species were obtained as follows. Test organisms were obtained from the American Type Culture Collection (Manassas, Va.). The isolates were maintained at −80 ° C., then thawed and sub-cultured one day prior to testing (seven days for Aspergillus strains).
(§2) The mouse serum was heat-inactivated for 30 minutes at 56° C., and filtered through a 0.2 μm low protein binding filter unit prior to use.
(§3) MIC values were determined using broth microdilution. The wells of the daughter plates ultimately contained 180 μL of RPMI-1640 medium with and without mouse serum, 10 μL of drug solution, and 10 μL of yeast or fungal inoculum.
(§4) Prior to susceptibility testing, fungal isolates were removed from frozen storage, thawed at room temperature, and subcultured to Potato Dextrose Agar. The Candida strains were incubated overnight at 35° C. and the Aspergillus strains for 7 days at 25° C. Yeast colonies were inoculated into sterile saline and adjusted to the turbidity of a 0.5 McFarland standard. Inoculums from Aspergillus strains were prepared by washing the surface of an agar slant with 1 mL of sterile saline containing 0.05% of Tween 20. The resulting colloidial suspensions were adjusted to an optical density of 0.09 to 0.11 at λ 625 nm.
(§5) Both the yeast and filamentous fungus suspensions were further diluted 1:100 in RPMI-1640 medium and dispensed into sterile reservoirs and used to inoculate the daughter plates. 10 μL of standardized inoculum was delivered into each well. This yielded a final cell concentration in the daughter plates of approximately 2.5×10^3 colony-forming units/mL. Plates were incubated at 35° C. for approximately 48 hr.
(§6) Following incubation, microplates were viewed from the bottom using a plate viewer.

[3] = test system: C. parapsilosis 630 ATCC 90018; assay: MIC by broth microdilution against C. parapsilosis; type: cell-based
Procedure: as §1, §2, §3, §4, §5, §6

[4] = test system: A. flavus 626 ATCC 64025; assay: MIC by broth microdilution against A. flavus; type: cell-based; settings: growth reduction of 50%
Procedure: as §1, §2, §3, §4, §5, §6

[5] = First run, 1 mg/kg IP 2 hr after infection
[6] = First run, 1 mg/kg IP 2 hr after infection, neutropenic mice
[7] = First run, 5 mg/kg IP 2 hr after infection
[8] = First run, 5 mg/kg IP 2 hr after infection, neutropenic mice
[9] = Second run, 1 mg/kg IP 2 hr after infection
[10] = Third run, 0.5 mg/kg IP 2 hr after infection
[11] = Third run, 1.5 mg/kg IP 2 hr after infection
[12] = Third run, 4.5 mg/kg IP 2 hr after infection

Structure (SMILES) | Difference from 24-hr control [1, 5] | Mean log10 CFU/kidneys (±SD) [1, 6] [log10 CFU/kidneys] | Difference from 24-hr control [1, 7] | Mean log10 CFU/kidneys (±SD) [1, 8] [log10 CFU/kidneys] | MIC ([2]; 0% mouse serum, 48 hr) [µg/mL] | MIC ([2]; 50% mouse serum, 48 hr) [µg/mL] | MIC ([3]; 0% mouse serum, 48 hr) [µg/mL] | MIC ([3]; 50% mouse serum, 48 hr) [µg/mL] | MIC ([4]; 0% mouse serum, 48 hr) [µg/mL] | MIC ([4]; 50% mouse serum, 48 hr) [µg/mL] | further results
CCC(C)CC(C)CCCCCCCCC(=O)NC1CC(O)C(NCCNC(=O)OCCOC)NC(=O)C2C(O)CCN2C(=O)C(C(O)CCN)NC(=O)C(C(O)C(O)c2ccc(O)cc2)NC(=O)C2CC(O)CN2C(=O)C(C(C)O)NC1=O (stereo not drawn) [Compound 1] | −0.13 ns log10 CFU/kidneys | 4.65 ± 0.26 | −2.87*** log10 CFU/kidneys | 1.90 ± 0.21 | 0.5 (≈ 0.418 µM) | 1 (≈ 0.837 µM) | 2 (≈ 1.67 µM) | >16 | 0.125 (≈ 0.105 µM) | 0.5 (≈ 0.418 µM) | Reduction of yeast density in kidneys ([1]; First run): 2.87 logs
CCCCCOc1ccc(-c2ccc(-c3ccc(C(=O)NC4CC(O)C(OCCCCCCOCCOCCOCCOCCOCCOCCOCCOC)NC(=O)C5C(O)C(C)CN5C(=O)C(C(C)O)NC(=O)C(C(O)C(O)c5ccc(O)cc5)NC(=O)C5CC(O)CN5C(=O)C(C(C)O)NC4=O)cc3)cc2)cc1 (stereo not drawn) [Compound 7] | 0.50 ns log10 CFU/kidneys | 5.27 ± 0.17 | 0.31 ns log10 CFU/kidneys | 5.08 ± 0.19 | 2 (≈ 1.28 µM) | >16 | >16 | >16 | 0.25 (≈ 0.16 µM) | 2 (≈ 1.28 µM) | –
CCCCCOc1ccc(-c2ccc(-c3ccc(C(=O)NC4CC(O)C(OCCOCCOCCOCCOC)NC(=O)C5C(O)C(C)CN5C(=O)C(C(C)O)NC(=O)C(C(O)C(O)c5ccc(O)cc5)NC(=O)C5CC(O)CN5C(=O)C(C(C)O)NC4=O)cc3)cc2)cc1 (stereo not drawn) [Compound 5] | 0.00 ns log10 CFU/kidneys | 4.77 ± 0.06 | −1.76*** log10 CFU/kidneys | 3.01 ± 0.41 | 2 (≈ 1.5 µM) | 2 (≈ 1.5 µM) | >16 | >16 | 0.125 (≈ 0.094 µM) | 0.5 (≈ 0.376 µM) | Reduction of yeast density in kidneys ([1]; First run): 1.76 logs
CCC(C)CC(C)CCCCCCCCC(=O)NC1CC(O)C(NCCNC(=O)OCCOC)NC(=O)C2C(O)CCN2C(=O)C(C(O)CCNC(=O)OCCOC)NC(=O)C(C(O)C(O)c2ccc(O)cc2)NC(=O)C2CC(O)CN2C(=O)C(C(C)O)NC1=O (stereo not drawn) [Compound 2] | 0.33 ns log10 CFU/kidneys | 5.10 ± 0.28 | 0.37 ns log10 CFU/kidneys | 5.14 ± 0.25 | 4 (≈ 3.08 µM) | >16 | 16 (≈ 12.3 µM) | >16 | – | 4 (≈ 3.08 µM) | –
CCC(C)CC(C)CCCCCCCCC(=O)NC1CC(O)C(NCCNC(=O)CCCCCCCOCCOCCOCCOCCOCCOCCOCCOC)NC(=O)C2C(O)CCN2C(=O)C(C(O)CCNC(=O)CCCCCCCOCCOCCOCCOCCOCCOCCOCCOC)NC(=O)C(C(O)C(O)c2ccc(O)cc2)NC(=O)C2CC(O)CN2C(=O)C(C(C)O)NC1=O (stereo not drawn) [Compound 4] | 0.48 ns log10 CFU/kidneys | 5.25 ± 0.09 | 0.60 ns log10 CFU/kidneys | 5.37 ± 0.11 | 8 (≈ 3.96 µM) | >16 | >16 | >16 | 16 (≈ 7.91 µM) | – | –
CCCCCOc1ccc(-c2ccc(-c3ccc(C(=O)N[C@H]4C[C@@H](O)[C@@H](O)NC(=O)[C@@H]5[C@@H](O)[C@@H](C)CN5C(=O)[C@H]([C@@H](C)O)NC(=O)[C@H]([C@H](O)[C@@H](O)c5ccc(O)cc5)NC(=O)[C@@H]5C[C@@H](O)CN5C(=O)[C@H]([C@@H](C)O)NC4=O)cc3)cc2)cc1 [Anidulafungin, anidulafungin, reference compound] ({pTerphenylCO(4''-OnC5H11)}-[Orn(4R-OH,5R-OH)]T[Hyp][hTyr(3S-OH,4S-OH)]T[Pro(3S-OH,4S-Me)]; lactam 1-C) | −1.68*** log10 CFU/kidneys | 3.09 ± 0.61 | – | – | – | – | – | – | – | – | Difference from 24-hr control [1, 9]: −1.83*** log10 CFU/kidneys; Mean log10 CFU/kidneys (±SD) [1, 9]: 3.37 ± 0.72 log10 CFU/kidneys; Difference from 24-hr control [1, 10]: −0.47 ns log10 CFU/kidneys; Mean log10 CFU/kidneys (±SEM) [1, 10]: 4.41 ± 0.12 log10 CFU/kidneys; Difference from 24-hr control [1, 11]: −2.11*** log10 CFU/kidneys; Mean log10 CFU/kidneys (±SEM) [1, 11]: 2.77 ± 0.20 log10 CFU/kidneys; Difference from 24-hr control [1, 12]: −3.78*** log10 CFU/kidneys; Mean log10 CFU/kidneys (±SEM) [1, 12]: 1.10 ± 0.38 log10 CFU/kidneys; MIC ([2]; Candida albicans, ATCC90028, 48 h, 0% mouse serum): 0.03 µg/mL (≈ 0.0263 µM); MIC ([2]; Candida albicans, ATCC90028, 48 h, 50% mouse serum): 0.06 µg/mL (≈ 0.0526 µM); MIC ([3]; Lodderomyces parapsilosis, ATCC90018, 48 h, 0% mouse serum): 2 µg/mL (≈ 1.75 µM); MIC ([3]; Lodderomyces parapsilosis, ATCC90018, 48 h, 50% mouse serum): > 16 µg/mL; MIC ([4]; Aspergillus flavus, ATCC64025, 48 h, 0% mouse serum): < 0.015 µg/mL; MIC ([4]; Aspergillus flavus, ATCC64025, 48 h, 50% mouse serum): 0.03 µg/mL (≈ 0.0263 µM)
CCC(C)CC(C)CCCCCCCCC(=O)NC1CC(O)C(OCCCCCCOCCOCCOCCOCCOCCOCCOCCOC)NC(=O)C2C(O)CCN2C(=O)C(C(O)CC(N)=O)NC(=O)C(C(O)C(O)c2ccc(O)cc2)NC(=O)C2CC(O)CN2C(=O)C(C(C)O)NC1=O (stereo not drawn) [Compound 10] | – | – | – | – | >16 | >16 | >16 | >16 | 4 (≈ 2.69 µM) | 16 (≈ 10.8 µM) | –
CCC(C)CC(C)CCCCCCCCC(=O)NC1CC(O)C(OCCOCCOCCOCCOCCOCCOCCOC)NC(=O)C2C(O)CCN2C(=O)C(C(O)CC(N)=O)NC(=O)C(C(O)C(O)c2ccc(O)cc2)NC(=O)C2CC(O)CN2C(=O)C(C(C)O)NC1=O (stereo not drawn) [Compound 9] | – | – | – | – | >16 | >16 | >16 | >16 | 2 (≈ 1.44 µM) | 8 (≈ 5.77 µM) | –
CCC(C)CC(C)CCCCCCCCC(=O)NC1CC(O)C(OCCOCCOCCOCCOC)NC(=O)C2C(O)CCN2C(=O)C(C(O)CC(N)=O)NC(=O)C(C(O)C(O)c2ccc(O)cc2)NC(=O)C2CC(O)CN2C(=O)C(C(C)O)NC1=O (stereo not drawn) [Compound 8] | – | – | – | – | 8 (≈ 6.37 µM) | >16 | >16 | >16 | 0.5 (≈ 0.398 µM) | 2 (≈ 1.59 µM) | –
